Experimental data: ChEMBL document CHEMBL5512665, “A CARM1 Inhibitor Potently Suppresses Breast Cancer Both In Vitro and In Vivo” (J Med Chem, 2024)
Active and inactive are the calls of the source.

What was measured:
MCF7 [1] = assay: Induction of cell cycle arrest in human MCF7 cells at 2.5 to 10 uM incubated overnight by propidium iodide staining based flow cytometry; assay type: functional; details: dose 2.5-10 µM
MCF7 [2] = assay: Antitumor activity against human MCF7 cells xenografted in BALB/C mouse assessed as inhibition of tumor growth at 25 mg/kg,ip administrated every other day for 29 days; assay type: functional, organism-based; details: time 29.0 day
[3] = Toxicity in BALB/C mouse xenografted with human MCF7 cells assessed as change in body weight at 50 mg/kg,ip administrated every other day for 29 days; assay type: organism-based; details: in vivo, 696 h, time 29 day
[4] = Toxicity in BALB/C mouse xenografted with human MCF7 cells assessed as change in spleen morphology at 25 mg/kg,ip administrated every other day for 29 days; assay type: organism-based; details: in vivo, 696 h, time 29 day
[5] = Toxicity in BALB/C mouse xenografted with human MCF7 cells assessed as change in kidney morphology at 25 mg/kg,ip administrated every other day for 29 days; assay type: organism-based; details: in vivo, 696 h, time 29 day
MCF7 [6] = assay: Antitumor activity against human MCF7 cells xenografted in BALB/C mouse assessed as downregulation of C-Myc gene expression at 50 mg/kg,ip administrated every other day for 29 days by RT-qPCR analysis; assay type: functional, organism-based; details: time 29.0 day
MCF7 [7] = assay: Antitumor activity against human MCF7 cells xenografted in BALB/C mouse assessed as downregulation of NRIP1 gene expression at 50 mg/kg,ip administrated every other day for 29 days by RT-qPCR analysis; assay type: functional, organism-based; details: time 29.0 day
MCF7 [8] = assay: Antitumor activity against human MCF7 cells xenografted in BALB/C mouse assessed as upregulation of IFIT1 gene expression at 50 mg/kg,ip administrated every other day for 29 days by RT-qPCR analysis; assay type: functional, organism-based; details: time 29.0 day
MCF7 [9] = assay: Antitumor activity against human MCF7 cells xenografted in BALB/C mouse assessed as upregulation of DDX58 gene expression at 25 mg/kg,ip administrated every other day for 29 days by RT-qPCR analysis; assay type: functional, organism-based; details: time 29.0 day
MCF7 [10] = assay: Antitumor activity against human MCF7 cells xenografted in BALB/C mouse assessed as upregulation of DDX58 gene expression at 50 mg/kg,ip administrated every other day for 29 days by RT-qPCR analysis; assay type: functional, organism-based; details: time 29.0 day
HCC1937 = assay: Antiproliferative activity against human HCC1937 cells assessed as reduction in cell growth incubated for 7 days by celltiter 96 aqueous one solution cell proliferation assay; details: HCC1937, 168 h
MDA-MB-231 [11] = assay: Antitumor activity against human MDA-MB-231 cells xenografted in BALB/C mouse assessed as reduction of tumor size at 25 mg/kg,ip administrated daily for 11 days; assay type: functional, organism-based; details: time 11.0 day
MDA-MB-231 [12] = assay: Antitumor activity against human MDA-MB-231 cells xenografted in BALB/C mouse assessed as reduction of tumor weight at 50 mg/kg,ip administrated daily for 11 days; assay type: functional, organism-based; details: time 11.0 day
[13] = Toxicity in BALB/C mouse xenografted with human MDA-MB-231 cells assessed as change in heart morphology at 25 mg/kg,ip administrated daily for 11 days; assay type: organism-based; details: in vivo, 264 h, time 11 day
4T1 [14] = assay: Antitumor activity against mouse 4T1 cells implanted in BALB/C mouse assessed as inhibition of tumor size at 25 mg/kg,ip administrated daily for 14 days; assay type: functional, organism-based; details: time 14.0 day
[15] = Toxicity in BALB/C mouse implanted with mouse 4T1 cells assessed as change in heart morphology at 50 mg/kg,ip administrated daily for 14 days; assay type: organism-based; details: in vivo, 336 h, time 14 day
[16] = Toxicity in BALB/C mouse implanted with mouse 4T1 cells assessed as change in liver morphology at 25 mg/kg,ip administrated daily for 14 days; assay type: organism-based; details: in vivo, 336 h, time 14 day
[17] = Toxicity in BALB/C mouse implanted with mouse 4T1 cells assessed as change in liver morphology at 50 mg/kg,ip administrated daily for 14 days; assay type: organism-based; details: in vivo, 336 h, time 14 day
4T1 [18] = assay: Antitumor activity against mouse 4T1 cells implanted in BALB/C mouse assessed as downregulation of TFF1 gene expression at 25 mg/kg,ip administrated daily for 14 days by RT-qPCR analysis; assay type: functional, organism-based; details: time 14.0 day
4T1 [19] = assay: Antitumor activity against mouse 4T1 cells implanted in BALB/C mouse assessed as downregulation of TFF1 gene expression at 50 mg/kg,ip administrated daily for 14 days by RT-qPCR analysis; assay type: functional, organism-based; details: time 14.0 day
4T1 [20] = assay: Antitumor activity against mouse 4T1 cells implanted in BALB/C mouse assessed as downregulation of NRIP1 gene expression at 25 mg/kg,ip administrated daily for 14 days by RT-qPCR analysis; assay type: functional, organism-based; details: time 14.0 day
4T1 [21] = assay: Antitumor activity against mouse 4T1 cells implanted in BALB/C mouse assessed as upregulation of IFNalpha gene expression at 25 mg/kg,ip administrated daily for 14 days by RT-qPCR analysis; assay type: functional, organism-based; details: time 14.0 day
MCF7 [22] = assay: Synergistic antiproliferative activity against human MCF7 cells assessed as inhibition of cell growth at 2.5 uM incubated for 7 days in presence of tamoxifen by celltiter 96 aqueous one solution cell proliferation assay; assay type: functional, cell-based; details: time 7.0 day
MCF7 [23] = assay: Synergistic antiproliferative activity against human MCF7 cells assessed as inhibition of colony formation at 2.5 uM incubated for 10 days in presence of tamoxifen by crystal violet staining based analysis; assay type: functional, cell-based; details: time 10.0 day
MCF7 [24] = assay: Synergistic antiproliferative activity against human MCF7 cells assessed as downregulation of CCND1 gene expression at 2.5 uM incubated for 6 hrs in presence of tamoxifen by RT-qPCR analysis; assay type: functional, cell-based
MCF7 [25] = assay: Synergistic antiproliferative activity against human MCF7 cells assessed as downregulation of C-Myc gene expression at 2.5 uM incubated for 6 hrs in presence of tamoxifen by RT-qPCR analysis; assay type: functional, cell-based
MCF7 [26] = assay: Synergistic antiproliferative activity against human MCF7 cells assessed as downregulation of C-Myc gene expression at 2.5 uM incubated for 6 hrs in presence of fulvestrant by RT-qPCR analysis; assay type: functional, cell-based
MCF7 [27] = assay: Synergistic antiproliferative activity against human MCF7 cells assessed as downregulation of N-Myc gene expression at 2.5 uM incubated for 6 hrs in presence of tamoxifen by RT-qPCR analysis; assay type: functional, cell-based
MCF7 [28] = assay: Synergistic antitumor activity against human MCF7 cells xenografted in BALB/C mouse assessed as reduction in tumor size at 25 mg/kg,ip administrated every other day for 15 days in presence of 5 mg/kg tamoxifen oral administration; assay type: functional, organism-based; details: time 15.0 day
4T1 [29] = assay: Potentiation of etoposide induced antiproliferative activity against mouse 4T1 cells assessed as inhibition of cell growth at 2.5 uM incubated for 7 days in presence of etoposide by celltiter 96 aqueous one solution cell proliferation assay; assay type: functional, cell-based; details: time 7.0 day
4T1 [30] = assay: Potentiation of etoposide induced antiproliferative activity against mouse 4T1 cells assessed as upregulation of CCL5 gene expression at 2.5 uM in presence of etoposide by RT-qPCR analysis; assay type: functional, cell-based
4T1 [31] = assay: Potentiation of etoposide induced antitumor activity against mouse 4T1 cells implanted in BALB/C mouse assessed as reduction in tumor size at 25 mg/kg,ip administrated daily for 12 days in presence of 8 mg/kg etoposide administration; assay type: functional, organism-based; details: time 12.0 day
4T1 [32] = assay: Potentiation of etoposide induced antitumor activity against mouse 4T1 cells implanted in BALB/C mouse assessed as upregulation of ISG15 gene expression at 25 mg/kg,ip administrated daily for 12 days in presence of 8 mg/kg etoposide administration by RT-qPCR analysis; assay type: functional, organism-based; details: time 12.0 day

Cc1ccc(-c2nc(N3CCN(CCN(C)C)CC3)ncc2-c2ccoc2)cc1.Cl.Cl
1.97 µM: EC50 (HCC1937)
active: Activity (MCF7 [1]) | Activity (MCF7 [2]) | Activity (MCF7 [6]) | Activity (MCF7 [7]) | Activity (MCF7 [8]) | Activity (MCF7 [9]) | Activity (MCF7 [10]) | Activity (MDA-MB-231 [11]) | Activity (MDA-MB-231 [12]) | Activity (4T1 [14]) | Activity (4T1 [18]) | Activity (4T1 [19]) | Activity (4T1 [20]) | Activity (4T1 [21]) | Activity (MCF7 [22]) | Activity (MCF7 [23]) | Activity (MCF7 [24]) | Activity (MCF7 [25]) | Activity (MCF7 [26]) | Activity (MCF7 [27]) | Activity (MCF7 [28]) | Activity (4T1 [29]) | Activity (4T1 [30]) | Activity (4T1 [31]) | Activity (4T1 [32])
Non-Toxic: Activity [3] | Activity [4] | Activity [5] | Activity [13] | Activity [15] | Activity [16] | Activity [17]
